Assay results reported in PMC4042160, “In silico, in vitro and cellular analysis with a kinome-wide inhibitor panel correlates cellular LRRK2 dephosphorylation to inhibitor activity on LRRK2” (Frontiers in Molecular Neuroscience, 2014).
Where a name gives a salt, the structure may show the parent alone.

How the values were obtained:
[1] = molecular target: T1, GST-tagged truncated LRRK2 containing residues 970 to 2527 (Homo sapiens, UniProt Q5S007); assay: In vitro LRRKtide peptide-substrate kinase assay, single dose testing (10 μM); type: biochemical; settings: for % LRRKtide phosphorylation relative to solvent: LRRKtide assay @ 10 μM inhibitor, GST-LRRK2 970-2527, 10 μM ATP, mean, N = 3, solvent control = 100%; for activity on LRRK2 kinase activity in vitro (in words): no activity at 10 μM
T1 construct: GST-tagged truncated LRRK2 containing residues 970 to 2527 (Life Technologies); purchased Life Technologies
T1 sequence (Q5S007 970-2527): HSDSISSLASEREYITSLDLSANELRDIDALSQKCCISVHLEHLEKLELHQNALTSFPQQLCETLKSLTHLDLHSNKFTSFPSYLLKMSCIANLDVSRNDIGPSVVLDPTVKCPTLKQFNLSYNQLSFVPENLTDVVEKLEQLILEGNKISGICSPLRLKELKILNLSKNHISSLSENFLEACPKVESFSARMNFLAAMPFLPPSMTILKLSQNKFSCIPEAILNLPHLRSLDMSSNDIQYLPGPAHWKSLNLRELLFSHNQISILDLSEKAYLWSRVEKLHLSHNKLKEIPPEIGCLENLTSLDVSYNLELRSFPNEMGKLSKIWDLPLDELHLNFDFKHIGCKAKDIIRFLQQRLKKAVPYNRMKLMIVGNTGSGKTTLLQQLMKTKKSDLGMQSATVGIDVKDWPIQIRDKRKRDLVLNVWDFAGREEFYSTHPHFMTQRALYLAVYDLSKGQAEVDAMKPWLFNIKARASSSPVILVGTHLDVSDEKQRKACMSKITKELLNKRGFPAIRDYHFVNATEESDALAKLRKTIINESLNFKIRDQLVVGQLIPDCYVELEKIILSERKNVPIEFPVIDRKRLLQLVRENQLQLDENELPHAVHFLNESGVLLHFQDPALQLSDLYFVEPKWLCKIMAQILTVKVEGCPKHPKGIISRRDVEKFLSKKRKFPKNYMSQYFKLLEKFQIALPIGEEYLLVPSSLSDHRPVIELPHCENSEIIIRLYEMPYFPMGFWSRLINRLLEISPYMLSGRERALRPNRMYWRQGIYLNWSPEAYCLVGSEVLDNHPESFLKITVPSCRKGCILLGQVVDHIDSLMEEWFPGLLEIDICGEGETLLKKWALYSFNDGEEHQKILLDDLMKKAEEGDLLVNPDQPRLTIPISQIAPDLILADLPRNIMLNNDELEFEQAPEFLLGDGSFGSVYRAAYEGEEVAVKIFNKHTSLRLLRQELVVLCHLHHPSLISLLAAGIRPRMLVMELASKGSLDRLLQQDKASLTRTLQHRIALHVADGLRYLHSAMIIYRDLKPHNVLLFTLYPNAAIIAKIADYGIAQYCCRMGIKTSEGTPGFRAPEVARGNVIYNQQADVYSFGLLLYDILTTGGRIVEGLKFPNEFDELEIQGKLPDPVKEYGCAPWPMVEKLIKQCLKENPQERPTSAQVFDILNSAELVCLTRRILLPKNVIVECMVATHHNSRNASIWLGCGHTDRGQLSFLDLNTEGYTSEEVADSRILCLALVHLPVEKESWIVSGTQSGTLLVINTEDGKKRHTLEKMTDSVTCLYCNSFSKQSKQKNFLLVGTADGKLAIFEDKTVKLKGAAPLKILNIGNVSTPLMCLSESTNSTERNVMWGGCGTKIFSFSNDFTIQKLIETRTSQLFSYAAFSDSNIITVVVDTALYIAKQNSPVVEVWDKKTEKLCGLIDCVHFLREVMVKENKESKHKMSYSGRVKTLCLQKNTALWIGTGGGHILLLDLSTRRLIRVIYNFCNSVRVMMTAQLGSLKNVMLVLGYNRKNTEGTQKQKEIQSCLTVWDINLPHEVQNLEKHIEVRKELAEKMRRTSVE

LRRK2 phospho-Ser935 = molecular target: T2, LRRK2 phospho-Ser935 (Homo sapiens, UniProt Q5S007); assay: Cellular LRRK2 phosphoserine 935 dephosphorylation spotblot assay in SH-SY5Y cells stably expressing 3xFlag-LRRK2; type: cell-based; settings: for Phosphorylation level relative to solvent (%) (cellular pS935 assay): @ 5 μM for 2 h, SH-SY5Y stably expressing LRRK2, pS935/total LRRK2; for dephosphorylation of LRRK2 (Ser935): 5 μM, 2 h, SH-SY5Y
T2 construct: expressed in transfected cells
T2 sequence (Q5S007 whole entry): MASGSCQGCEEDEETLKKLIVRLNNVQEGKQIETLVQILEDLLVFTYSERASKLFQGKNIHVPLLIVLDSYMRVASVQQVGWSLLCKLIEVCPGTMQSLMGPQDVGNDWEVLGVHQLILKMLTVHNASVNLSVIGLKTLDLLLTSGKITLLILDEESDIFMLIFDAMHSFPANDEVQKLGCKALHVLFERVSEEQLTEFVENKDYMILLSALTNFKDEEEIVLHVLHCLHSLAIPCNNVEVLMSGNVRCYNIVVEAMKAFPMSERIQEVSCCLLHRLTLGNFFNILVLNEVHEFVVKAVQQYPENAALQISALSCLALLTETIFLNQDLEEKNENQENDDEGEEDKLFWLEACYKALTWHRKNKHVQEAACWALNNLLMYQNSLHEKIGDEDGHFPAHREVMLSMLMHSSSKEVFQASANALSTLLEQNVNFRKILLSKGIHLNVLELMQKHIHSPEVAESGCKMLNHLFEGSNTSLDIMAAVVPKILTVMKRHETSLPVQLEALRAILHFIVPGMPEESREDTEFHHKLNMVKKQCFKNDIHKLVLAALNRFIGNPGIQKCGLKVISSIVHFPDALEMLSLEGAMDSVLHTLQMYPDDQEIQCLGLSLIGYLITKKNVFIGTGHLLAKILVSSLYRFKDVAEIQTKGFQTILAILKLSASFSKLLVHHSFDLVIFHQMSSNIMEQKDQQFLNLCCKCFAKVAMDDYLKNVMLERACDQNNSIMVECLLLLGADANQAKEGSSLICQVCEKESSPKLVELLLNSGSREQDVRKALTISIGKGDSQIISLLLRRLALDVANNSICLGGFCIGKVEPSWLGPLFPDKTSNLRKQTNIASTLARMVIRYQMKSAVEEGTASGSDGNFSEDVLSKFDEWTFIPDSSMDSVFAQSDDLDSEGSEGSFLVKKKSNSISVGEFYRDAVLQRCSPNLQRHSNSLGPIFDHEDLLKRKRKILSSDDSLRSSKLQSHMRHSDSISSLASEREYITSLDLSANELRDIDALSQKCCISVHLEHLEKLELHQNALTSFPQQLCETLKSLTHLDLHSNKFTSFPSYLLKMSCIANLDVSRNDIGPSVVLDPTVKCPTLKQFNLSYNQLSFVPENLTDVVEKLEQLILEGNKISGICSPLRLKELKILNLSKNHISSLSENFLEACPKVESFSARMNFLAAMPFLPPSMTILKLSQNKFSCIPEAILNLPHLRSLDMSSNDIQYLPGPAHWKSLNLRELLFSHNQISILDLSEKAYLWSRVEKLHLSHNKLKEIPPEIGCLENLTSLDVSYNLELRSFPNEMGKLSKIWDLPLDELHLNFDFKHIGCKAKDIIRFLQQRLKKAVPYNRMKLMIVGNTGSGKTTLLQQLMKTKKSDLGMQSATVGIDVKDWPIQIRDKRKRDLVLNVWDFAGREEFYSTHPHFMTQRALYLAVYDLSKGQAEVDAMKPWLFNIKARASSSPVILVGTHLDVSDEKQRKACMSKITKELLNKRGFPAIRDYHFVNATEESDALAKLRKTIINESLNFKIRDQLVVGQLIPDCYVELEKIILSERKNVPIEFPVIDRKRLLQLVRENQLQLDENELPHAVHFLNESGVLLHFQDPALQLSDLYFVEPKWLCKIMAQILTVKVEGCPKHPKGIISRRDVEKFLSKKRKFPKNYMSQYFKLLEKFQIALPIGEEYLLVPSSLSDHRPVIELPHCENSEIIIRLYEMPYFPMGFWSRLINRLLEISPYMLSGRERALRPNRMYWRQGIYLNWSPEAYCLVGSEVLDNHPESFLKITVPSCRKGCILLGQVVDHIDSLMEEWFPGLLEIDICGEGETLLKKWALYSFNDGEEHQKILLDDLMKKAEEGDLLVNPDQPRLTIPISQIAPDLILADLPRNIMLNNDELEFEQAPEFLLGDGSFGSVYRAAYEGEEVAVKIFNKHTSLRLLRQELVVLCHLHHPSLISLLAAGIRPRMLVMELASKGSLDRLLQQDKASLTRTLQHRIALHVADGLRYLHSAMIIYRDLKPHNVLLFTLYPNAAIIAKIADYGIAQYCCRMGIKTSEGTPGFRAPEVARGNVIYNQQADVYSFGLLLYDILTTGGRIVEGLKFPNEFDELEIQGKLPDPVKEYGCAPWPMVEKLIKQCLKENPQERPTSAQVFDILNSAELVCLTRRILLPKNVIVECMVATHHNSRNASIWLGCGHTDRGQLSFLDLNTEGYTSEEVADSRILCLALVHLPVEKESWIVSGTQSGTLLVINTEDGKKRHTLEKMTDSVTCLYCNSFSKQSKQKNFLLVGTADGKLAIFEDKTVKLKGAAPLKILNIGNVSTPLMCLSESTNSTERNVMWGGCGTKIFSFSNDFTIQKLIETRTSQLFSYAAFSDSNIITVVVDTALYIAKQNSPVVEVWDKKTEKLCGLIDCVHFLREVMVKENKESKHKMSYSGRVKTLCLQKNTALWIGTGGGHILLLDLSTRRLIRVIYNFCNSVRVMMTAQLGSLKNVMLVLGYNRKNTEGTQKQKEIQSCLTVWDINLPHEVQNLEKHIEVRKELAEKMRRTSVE

Row | % LRRKtide phosphorylation relative to solvent [1] [%] | Phosphorylation level relative to solvent (%) (cellular pS935 assay) (LRRK2 phospho-Ser935) | Compound | activity on LRRK2 kinase activity in vitro (in words) [1] | dephosphorylation of LRRK2 (Ser935) (LRRK2 phospho-Ser935)
1 | 54.91 | 97.11 | CC(C)c1nn(-c2c(Cl)cccc2Cl)c2nc(Cc3ccc(OCCO)cc3)[nH]c(=O)c12 [Cdk/Crk inhibitor] | – | –
2 | 12.59 | 70.32 | Nc1ncnc2n[nH]c(Nc3ccc(F)cc3)c12 [MNK1 inhibitor] | – | –
3 | 61.45 | 42.05 | N#Cc1c(NC(=O)c2cccc3ccccc23)sc2c1CCCC2 [JNK inhibitor IX] | – | –
4 | 3.34 | 73.51 | Cc1cc(Nc2nc(-c3ccccc3)nc3ccccc23)n[nH]1 [GSK-3 inhibitor XIII] | – | –
5 | 12.56 | 54.21 | c1ccc(-c2cnc(Nc3ccc(OCCN4CCCC4)cc3)s2)cc1 [Flt-3 inhibitor III] | – | –
6 | 17.45 | 109.11 | CCCCc1c(-c2ccc(OC)cc2)[nH]c2nccnc12 [Aloisine, RP106] | – | –
7 | 38.91 | 63.54 | COc1ccc(C(=O)Nc2sc3c(c2C(N)=O)CCCC3)cc1OC [Flt-3 inhibitor] | – | –
8 | 47.64 | 112.24 | CCc1[nH]c(-c2ccc(OC)cc2)nc1-c1ccncc1 [SB 202474] | – | –
9 | 15.36 | 61.54 | Nc1ncnc2c1c(-c1ccc(Oc3ccccc3)cc1)cn2C1CCCC1 [Lck inhibitor] | – | –
10 | 106.35 | 95.90 | Cn1sc(=O)n(Cc2ccccc2)c1=O [GSK-3b inhibitor I] | – | –
11 | 55.04 | 102.54 | N#Cc1cnc2cnc(NCc3cccnc3)cc2c1Nc1ccc(F)c(Cl)c1 [Tpl2 kinase inhibitor] | – | –
12 | 3.56 | 86.12 | O=C1NC(=O)C(c2cn(CCCn3ccnc3)c3ccccc23)=C1Nc1ccccc1 [PKCb inhibitor] | – | –
13 | 32.34 | 87.77 | O=C1NC(=O)C(c2cn(CCCO)c3ncccc23)=C1c1cnccn1 [GSK-3b inhibitor XI] | – | –
14 | 88.58 | 71.34 | Oc1cccc(-c2nc(N3CCOCC3)c3oc4ncccc4c3n2)c1 [PI-103] | – | –
15 | 17.20 | 84.73 | CN([C@@H](Cc1ccc(OS(=O)(=O)c2cccc3cnccc23)cc1)C(=O)N1CCN(c2ccccc2)CC1)S(=O)(=O)c1cccc2cnccc12 [KN-62] | – | –
16 | 24.40 | 112.70 | c1cc(-c2cnn3cc(-c4ccc(OCCN5CCCCC5)cc4)cnc23)ccn1 [AMPK inhibitor, compound C] | – | –
17 | 97.07 | 77.12 | O=c1[nH][nH]c2nnc(-c3c(-c4ccccc4)nn4ccccc34)cc12 [ERK inhibitor II, negative control] | – | –
18 | 5.79 | 56.41 | Cn1c2ccccc2c2c3c(c4c5ccccc5n(CCC#N)c4c21)CNC3=O [Gö 6976] | – | –
19 | 22.76 | 50.93 | COc1cc2ncc(-c3ccccc3)nc2cc1OC [AG 1296] | – | –
20 | 62.51 | 79.50 | O=C1NC(=O)/C(=C/c2ccc3nccnc3c2)S1 [PI 3-Kg inhibitor] | – | –
21 | 0.98 | 34.63 | CCN(CC)C(=O)c1ccc(Nc2nc(OCC3CCCCC3)c3[nH]cnc3n2)cc1 [Cdk2 inhibitor IV, NU6140, NU6140] | – | –
22 | 100.90 | 84.51 | Ic1cccc(CSc2nnc(-c3ccncc3)o2)c1 [GSK-3b inhibitor II] | – | –
23 | 6.06 | 80.85 | CNc1cc2c(Nc3cccc(Br)c3)ncnc2cn1 [PD 158780] | – | –
24 | 23.85 | 102.87 | CCCCc1c(-c2ccc(O)cc2)[nH]c2nccnc12 [Aloisine A, RP107, Aloisine A] | – | –
25 | 14.06 | 65.88 | Nc1[nH]nc2nnc(-c3c(-c4ccccc4)nn4ccccc34)cc12 [ERK inhibitor II, FR180204, FR180204] | – | –
26 | 79.40 | 89.37 | O=S(=O)(c1cccc2cnccc12)N1CCCNCC1 [HA 1077, Dihydrochloride Fasudil, Fasudil] | – | –
27 | 73.68 | 70.97 | Nc1nccc(-c2c(-c3ccc(F)cc3)ncn2C2CCNCC2)n1 [SB 220025] | – | –
28 | 89.08 | 49.08 | Cc1cc2ncc(-c3ccccc3)nc2cc1C [AG 1295] | – | –

Continued, compound first:

Row | Compound | % LRRKtide phosphorylation relative to solvent [1] [%] | Phosphorylation level relative to solvent (%) (cellular pS935 assay) (LRRK2 phospho-Ser935) | activity on LRRK2 kinase activity in vitro (in words) [1] | dephosphorylation of LRRK2 (Ser935) (LRRK2 phospho-Ser935)
29 | CCOc1nc(NC(=O)Cc2cc(OC)ccc2OC)cc(N)c1C#N [JNK inhibitor VIII] | 105.45 | 93.08 | – | –
30 | O=C(c1ccccc1)c1ccc(N2CCOCC2)cc1O [DNA-PK inhibitor V] | 89.01 | 48.36 | inactive | ~ 50%
31 | CC(C)(C)c1nc2c3cc[nH]c(=O)c3c3cc(F)ccc3c2[nH]1 [JAK inhibitor I] | 3.20 | 47.17 | – | –
32 | O=C1c2ccccc2-[n+]2ccc3c([nH]c4ccccc43)c21 [Fascaplysin, synthetic, Fascaplysin] | 17.51 | 45.44 | – | –
33 | O=C(NC(NC(=S)Nc1ccc(F)c([N+](=O)[O-])c1)C(Cl)(Cl)Cl)C(c1ccccc1)c1ccccc1 (centres unmarked) [ATM/ATR kinase inhibitor] | 131.38 | 88.64 | – | –
34 | O=C(O)/C=C/c1cc(Br)c(Br)c(Br)c1Br [Casein kinase II inhibitor III, TBCA, TBCA] | 16.78 | 116.47 | – | –
35 | Nc1[nH]nc2nc3ccccc3nc12 [Cdk1/5 inhibitor] | 25.04 | 123.99 | – | –
36 | N#C/C(=C/c1ccc(O)c(O)c1)C(=O)NCc1ccccc1 [AG490] | 34.24 | 50.68 | – | 49.32%
37 | COc1cc2c(cc1OC)-c1[nH]nc(Nc3cccc(F)c3)c1C2 [PDGF receptor tyrosine kinase inhibitor IV] | 23.12 | 57.30 | – | –
38 | O=C1NC(=O)c2c1c1c3ccccc3n3c1c1c2c2ccccc2n1C1CCC3O1 [SB 218078] | 1.94 | 89.51 | – | –
39 | O=C1Nc2ccc(Cl)cc2/C1=C/c1cc(Cl)c(O)c(Cl)c1 [PKR inhibitor, negative control] | 1.07 | 72.69 | – | –
40 | N/C(=N\[N+](=O)[O-])N/N=C\c1ccc(-c2cccc([N+](=O)[O-])c2)o1 [ERK inhibitor III] | 55.32 | 90.93 | – | –
41 | O=C(O)c1ccc2c3c1cccc3c(=O)n1c3ccccc3nc21 [STO-609] | 15.01 | 121.51 | – | –
42 | CC(C)(C)c1cc(C=C(C#N)C#N)cc(Br)c1O [AG 1024] | 51.38 | 94.37 | – | –
43 | O=C1Cc2c([nH]c3ccc(Br)cc23)-c2ccccc2N1 [Kenpaullone] | 47.16 | 94.10 | – | –
44 | N#C/C(=C(/N)Sc1ccc(N)cc1)c1ccccc1C(F)(F)F [MEK 1/2 inhibitor] | 61.26 | 117.92 | – | –
45 | O=c1[nH]c2ccccc2n1C1CCN(Cc2ccc(-c3nc4cc5nc[nH]c5cc4nc3-c3ccccc3)cc2)CC1 [Akti-1/2] | 99.69 | 77.80 | – | –
46 | Oc1ccc(-c2nc(-c3ccncc3)c(-c3ccc(F)cc3)[nH]2)cc1 [SB 202190] | 45.07 | 88.12 | – | –
47 | Cc1ccc(S(=O)(=O)/C=C/C#N)cc1 [BAY 11-7082] | 132.94 | 47.14 | inactive | ~ 50%
48 | Oc1ccc(Nc2nc(-c3ccc(Cl)cc3)cs2)cc1 [Sphingosine kinase inhibitor] | 106.21 | 144.00 | – | –
